Test results from patent publication US20110171136A1, “OPTICAL IMAGING PROBES” (priority 2002, published 2011).

System: A431 cells
Assay: in vitro uptake competition experiments with glucose
Format: cell-based, human
Conditions: 1 mM (monovalent) or 0.7 mM (bivalent) probe, 30 minutes, 50 and 100 mM glucose respectively, FIGS. 3B and 3D
Protocol: The A431 cell line was obtained from the American Type Culture Collection and grown in DMEM with 4.5 g/l glucose, supplemented with 10% fetal bovine serum (Life Technologies, NY) and cultured in a humidified atmosphere containing 5% CO2 and 95% air at 37° C.
Utilizing the monovalent and bivalent Cy5.5-conjugated glucose probes, in vitro uptake competition experiments were performed by incubating A431 cells with 1 mM (monovalent) or 0.7 mM (bivalent) of each probe, for 30 minutes, in the presence of 50 and 100 mM glucose, respectively. After removal of the medium, cells were rinsed with ice-cold PBS and visualized under confocal microscopy. […] Under the same conditions, free Cy5.5 uptake by A431 cells was not inhibited by incubation with glucose.

CCN1\C(=C/C=C/C=C/C2=[N+](CCCCCC(=O)O)c3ccc4c(S(=O)(=O)O)cc(S(=O)(=O)O)cc4c3C2(C)C)C(C)(C)c2c1ccc1c(S(=O)(=O)[O-])cc(S(=O)(=O)O)cc21 [free Cy5.5]
inhibition of cellular uptake of probe by glucose: not inhibited
